These results are taken from PMC7687180 (Chembiochem, 2020).

Where two headings read alike, the source gives them in different places.

For assay [1], the target named is T1, SdeC (Legionella pneumophila, UniProt Q5ZTK8).
T1 construct: gene lpg2153
As to the kind of experiment: biochemical.

The target in assay [2] is T1, SdeC. The assay is described as follows: biochemical. The source holds these as a separate data set.

`NC(=O)c1ccc[n+]([C@@H]2S[C@H](COP(=O)(O)OP(=O)([O-])OC[C@H]3O[C@@H](n4cnc5c(N)ncnc54)[C@H](O)[C@@H]3O)[C@@H](O)[C@H]2O)c1` [compound 2, S-NAD^+] came in with an IC50 in assay [1] of 27.9 µM.

On to `NC(=O)c1cccc([C@@H]2O[C@H](COP(=O)(O)OP(=O)(O)OC[C@H]3O[C@@H](n4cnc5c(N)ncnc54)[C@H](O)[C@@H]3O)[C@@H](O)[C@H]2O)c1` [compound 3, BAD], for which the IC50 in assay [1] was 38.9 µM.

On to `NC(=O)c1ccc[n+]([C@@H]2O[C@H](COP(=O)([O-])OP(=O)(O)OC[C@H]3O[C@@H](n4cnc5c(N)ncnc54)[C@H](O)[C@@H]3O)[C@@H](O)[C@H]2O)c1` [NAD^+], for which, in assay [2], the concentration for half-maximal inhibition (IC50) worked out at 27.7 ± 1.9 µM.

The term IC50 denotes the concentration needed to halve the response being measured.
